Measurements as given in patent publication US20160022761A1, “DEREPRESSION OF IMMUNITY IN ONCOLOGICAL AND VIROLOGICAL CONDITIONS BY HIGH MOBILITY GROUP BOX 1 DERIVED PEPTIDES” (priority 2014, published 2016).

Tested on: human Treg cells
Assay: Inhibitory activity of human Treg cells in in vitro assays of T cell stimulation (anti-CD3 or MLR, tritiated thymidine proliferation)
Assay type: cell-based
Conditions: all treatment groups (0.01 ug/ml, 0.1 ug/ml and 1 ug/ml), 72 hours culture; compared to controls that received scrambled peptide (FFSAFLSEC)
Method: Isolation of human CD4+, CD4+CD25+, and CD4+CD25− T cells was performed from PBMC by using human Treg isolation kits (Miltenyi Biotec), respectively, according to the manufacturer's instructions. The purity of the resulting T cell populations was confirmed to be >95% by flow cytometry.
Inhibitory activity of human Treg cells was measured in in vitro assays of T cell stimulation. CD25-depleted spleen cells (10^5 cells/well) from human PBMC (105) were stimulated in vitro with the following: anti-human CD3 Ab (BD Pharmingen) or human PBMC (105) from a different donor (to induce a MLR). Cultures were maintained for 72 hours in the presence of SAFFLFCSE peptide at concentrations of 0.01 ug/ml, 0.1 ug/ml and 1 ug/ml. Tritiated thymidine was added at a concentration of 1 microcurie per well for the last 12 hours of culture. Scintillation counting was used to assess proliferation.

## SAFFLFCSE
  inhibition of T regulatory cell suppressive activity: > 80%
